The supplement of paper PMC10307832

Legend:
Test in all cases: relative viability (nuclei count vs DMSO), 5 days (fraction); higher = more cells survive
[1] = compound: O=C(Nc1c[nH]nc1-c1nc2ccc(CN3CCOCC3)cc2[nH]1)NC1CC1 [AT9283] + COc1cc2c(Oc3ccc(NC(=O)C4(C(=O)Nc5ccc(F)cc5)CC4)cc3F)ccnc2cc1OCCCN1CCOCC1 [Foretinib] (partner 0.25 µM)
How it was run: (§1)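 Five library-drug doses in √10 steps were combined with a fixed anchor-drug dose, or a single drug was given alone, by pin tool to lung cancer cell lines in 1536-well plates the day after seeding. Nuclei were stained and counted after 5 days. Relative viability is the nuclei count in treated wells over that in vehicle wells, taken as the median of duplicate plates.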

[2] = compound: C#Cc1cccc(Nc2ncnc3cc(OCCOC)c(OCCOC)cc23)c1 [Erlotinib] + CCNC(=O)c1noc(-c2cc(C(C)C)c(O)cc2O)c1-c1ccc(CN2CCOCC2)cc1 [Luminespib] (partner 0.01 µM)
How it was run: as §1

[3] = compound: C#Cc1cccc(Nc2ncnc3cc(OCCOC)c(OCCOC)cc23)c1 [Erlotinib] + O=C(c1cc(Cc2n[nH]c(=O)c3ccccc23)ccc1F)N1CCN(C(=O)C2CC2)CC1 [Olaparib] (partner 8 µM)
How it was run: as §1

[4] = compound: C#Cc1cccc(Nc2ncnc3cc(OCCOC)c(OCCOC)cc23)c1 [Erlotinib] + COc1cccc2cc(-c3nc([C@H]4CC[C@H](C(=O)O)CC4)n4ncnc(N)c34)[nH]c12 [OSI-027] (partner 0.5 µM)
How it was run: as §1

[5] = compound: O=C(Nc1c[nH]nc1-c1nc2ccc(CN3CCOCC3)cc2[nH]1)NC1CC1 [AT9283] + Cc1cc(Nc2cc(N3CCN(C)CC3)nc(Sc3ccc(NC(=O)C4CC4)cc3)n2)n[nH]1 [Tozasertib] (partner 0.1 µM)
How it was run: as §1

Cell Line | relative viability ([1]; first compound 0.003 µM) | relative viability ([1]; first compound 0.03 µM) | relative viability ([1]; first compound 0.09487 µM) | relative viability ([1]; first compound 0.3 µM) | relative viability ([2]; first compound 0.02 µM) | relative viability ([2]; first compound 0.2 µM) | relative viability ([2]; first compound 0.6325 µM) | relative viability ([2]; first compound 2 µM) | relative viability ([3]; first compound 0.02 µM) | relative viability ([3]; first compound 0.2 µM) | relative viability ([3]; first compound 0.6325 µM) | relative viability ([3]; first compound 2 µM) | relative viability ([4]; first compound 0.02 µM) | relative viability ([4]; first compound 0.2 µM) | relative viability ([4]; first compound 0.6325 µM) | relative viability ([4]; first compound 2 µM) | relative viability ([5]; first compound 0.003 µM) | relative viability ([5]; first compound 0.03 µM) | relative viability ([5]; first compound 0.09487 µM) | relative viability ([5]; first compound 0.3 µM)
CAL-12T | 1.1 | 0.773 | 0.414 | 0.283 | 0.3 | 0.32 | 0.377 | 0.226 | 0.742 | 0.674 | 0.488 | 0.474 | 0.672 | 0.47 | 0.219 | 0.26 | 0.31 | 0.29 | 0.212 | 0.215
IA-LM | 1.21 | 0.391 | 0.105 | 0.0774 |  |  |  |  | 0.757 |  |  | 0.905 |  |  |  |  |  |  |  | 
A-427 | 1.01 | 1.04 | 0.24 | 0.216 | 1.18 | 0.932 | 0.857 | 0.76 | 0.792 | 0.757 | 0.713 | 0.716 | 0.449 | 0.537 | 0.468 | 0.482 | 0.186 | 0.179 | 0.168 | 0.161
PC-3 [JPC-3] | 1 | 0.974 | 0.591 | 0.543 | 0.64 | 0.363 | 0.406 | 0.306 | 1.05 | 0.559 | 0.466 | 0.434 | 0.735 | 0.334 | 0.178 | 0.215 | 0.924 | 0.814 | 0.492 | 0.58
NCI-H1648 |  |  |  |  |  |  |  |  | 1.4 | 0.517 | 0.692 | 0.442 | 0.251 | 0.283 | 0.246 | 0.298 | 0.456 | 0.343 | 0.329 | 0.258
NCI-H1563 | 0.906 | 0.765 | 0.708 | 0.633 | 0.527 | 0.495 | 0.512 | 0.477 |  |  |  |  | 0.768 | 0.867 | 0.801 | 0.663 |  |  |  | 
201T | 1.12 | 1.07 | 0.274 | 0.247 | 1.01 | 1.03 | 1.06 | 0.874 | 0.846 | 0.85 | 0.788 | 0.774 | 0.804 | 0.862 | 0.846 | 0.664 | 0.871 | 0.6 | 0.35 | 0.302
ChaGo-K-1 | 0.918 | 0.521 | 0.319 | 0.268 | 0.635 | 0.541 | 0.604 | 0.505 | 0.426 | 0.466 | 0.391 | 0.402 | 0.695 | 0.55 | 0.549 | 0.434 | 0.196 | 0.208 | 0.215 | 0.236
